Experimental data: patent publication US6673625B2, “Saccharide sensing molecules having enhanced fluorescent properties” (The Regents of the University of California, priority 1999, dated 2004)

What was measured:
[1] = Cyclic voltammetry (glassy carbon, Ag/AgCl reference, 0.1 M NBu4ClO4 in acetonitrile); assay type: physicochemical; details: for first oxidation potential (amine) / first reduction potential: vs. Ag/AgCl; for Amine Oxidation Potential E° (D^+/D) / Fluorophore Reduction Potential E° (A/A^−): Ag/AgCl reference
Protocol: Samples for FT IR spectroscopy were prepared as solutions in CHCl3, and only the C═O stretches are reported. Unless otherwise stated, all NMR spectra were recorded at 500 MHz for ^1H and 125 MHz for ^13C at 20-25° C. using CDCl3 as the solvent. Unless stated otherwise, mass spectra were obtained using electrospray ionization (50 V) with a 50/50 methanol/water solvent mixture with ^1% acetic acid added. Cyclic voltammetry was conducted using a glassy carbon working electrode, platinum counter electrode, and Ag/AgCl reference electrode and carried out in a 0.1 M solution of NBu4ClO4 in acetonitrile.
(§1) Summarized Syntheses. As the syntheses are described as a series of analogous compounds with general procedures are given below. Cyclic voltammetry was conducted using a glassy carbon working electrode, platinum counter electrode, and Ag/AgCl reference electrode and carried out in a 0.1 M solution of NBu4ClO4 in acetonitrile. Samples for fluorescence were prepared as 1.00 mM stock solutions in MeOH. A 30.0 μL aliquot of solution was then added to 3.000 mL of the appropriate solvent mixture (a combination of methanol and phosphate buffered saline—PBS). Relative quantum yields were determined by the relative output of equimolar solutions of two compounds using 3ay as a reference. Glucose additions were performed by the addition of a concentrated solution of glucose in PBS to a stirred solution of the fluorescent molecule in methanol/PBS.
(§2) General. All reactions were performed under an atmosphere of N2, followed by work-up in air. Protected boronate esters were stored under vacuum to prevent slow hydrolysis from atmospheric moisture. Unless stated otherwise, all chemicals were purchased from commercial suppliers. Anhydrous solvents from Aldrich were used for all reactions. Starting compounds known in the art such as N-n-butyl-4-chloronaphthalene-1,8-dicarboximide(1ax), 2,2-dimethylpropane-1,3-diyl[o-(bromomethyl) phenyl]boronate, were prepared by literature methods (see e.g. Daffy et al. Chem-Eur J 1998, 4, 1810-1815; de Silva et al., Chem Rev 1997, 97, 1515-1566). Samples for FT IR spectroscopy were prepared as solutions in CHCl3, and only the C═O stretches are reported here. All mass spectra were obtained using electrospray ionization (ESI/MS) with an ionization potential of 50V and a solvent system consisting of 1% acetic acid in 50/50 methanol/water. Cyclic voltammetry was conducted using a glassy carbon working electrode, platinum counter electrode, and Ag/AgCl reference electrode and carried out in a 0.1 M solution of NBu4ClO4 in acetonitrile. Samples for fluorescence measurements were prepared as 1.00 mM stock solutions in MeOH. A 30.0 μL aliquot of solution was then added to 3.000 mL of the appropriate solvent mixture (a combination of methanol and phosphate buffered saline—PBS) giving a final concentration of 10.0 μM for each complex. Changes in pH were carried out by the addition of small volumes of concentrated hydrochloric acid, acetic acid, or sodium hydroxide. Glucose additions were performed by the addition of a concentrated solution of glucose in PBS to a stirred solution of fluorophore in a cuvette. Relative quantum yield measurements were carried out by measuring the relative intensities of equimolar solutions (10.0 μM) of two fluorophores. Compound 3ay was used as the reference.

[2] = Fluorescence pH switching; details: for change in fluorescence: pH changed from 11 to 2
Protocol: Samples for fluorescence were prepared as 1.00 mM stock solutions in MeOH. A 30.0 μL aliquot of solution was then added to 3.000 mL of the appropriate solvent mixture (a combination of methanol and phosphate buffered saline—PBS) giving a final concentration of 10.0 μM for each complex. […] Glucose additions were performed by the addition of a concentrated solution of glucose in PBS to a stirred solution of fluorophore in a cuvette.

[3] = Rehm-Weller estimate of free energy of photoinduced electron transfer (PET); assay type: physicochemical; details: for ΔGPET: Rehm-Weller estimate; for λ00: average of excitation and emission maxima
Description: The search for new fluorescent glucose transducers based on photoelectron transfer (PET) requires, among other things, an understanding of the electrochemistry of any potential donor-acceptor pair. The free energy of PET (ΔGel) can be calculated using the Rehm-Weller equation shown below:
ΔGel(kcal mol^−1)=23.06[E^0(D^+/D)−E^0(A/A^−)]−wp−wr−ΔG00 where E^0(D^+/D) is the oxidation potential of the donor, E^0(A/A^−) is the reduction potential of the acceptor, and ΔG00 is the free energy corresponding to the equilibrium energy E00 (see e.g. Kavarnos, G. J. In Fundamentals of photoinduced electron transfer, VCH Publishers: New York, N.Y., 1993; p Chapter 1 and Rehm and Weller, Ist. J. Chem. 1970, 8, 259). The quantities wp and wr are Coulombic terms for the products and reactants, and ate found to be small in polar solvents. To simplify predictions, we assume wp and wr to be zero, and estimate E00 as the energy corresponding to [λmax(ex)+λmax(em)]/2 for each fluorophore.
ΔGPET=23.06[E^0(Z^oxidation)−E^0(F^reduction)]−ΔE00],
The electrochemical potentials can be measured using the individual molecular groups before assembling the complete molecule.
Electrochemistry. The search for new fluorescent glucose transducers based on PET requires, among other things, an understanding of the electrochemistry of any potential donor-acceptor pair. The free energy of PET (ΔGel) can be calculated using the Rehm-Weller equation shown in eq 1, where E^0(D^+/D) is the oxidation potential of the […]
ΔGe(kcal mol^−1)=23.06[E^0(D^+/D)−E^0(A/A^−)]−wp−wr−ΔG00 (1) donor, E^0(A/A^−) is the reduction potential of the acceptor, and ΔG00 is the free energy corresponding to the equilibrium energy E00. The quantities wp and wr are Coulombic terms for the products and reactants, and are found to be small in polar solvents. In our case, wr=0 since the reactants are neutral. To simplify predictions, we assume wp to be zero and estimate E00 as the energy corresponding to [λmax(ex)+λmax(em)]/2 for each fluorophore. […]
it is possible to estimate the free energy of photoinduced electron transfer (PET) in these systems (see e.g. Kavamos, G. J. Fundamentals of Photoinduced Electron Transfer, VCH: New York, 1993; pp 37-40). E0(D^+/D) and E^0(A/A^−) correspond to the […] of the electron donor (i.e. amine) and electron acceptor (i.e. fluorophore), respectively. The quantity ΔG00, is the equilibrium energy, which we estimate as the energy corresponding to the equilibrium wavelength λ00. As an estimate of λ00, we use the average of the excitation and emission maxima for each fluorophore. Smaller solvent-dependent work terms for the Coulombic interaction between the reactants and products are left out for simplicity. Since the mechanism of fluorescence switching in these systems depends on PET, this gives us a rough estimate of which fluorophores should give the best response to glucose.

[4] = Fluorescence spectra and relative quantum yields of naphthalimide boronates; assay type: physicochemical; details: for Emission λmax / Excitation λmax / Relative Quantum Yield: PBS buffer (pH 7.4); for Relative Quantum Yield: equimolar 10.0 μM solutions, 3ay as reference
Description: Sample excitation and emission spectra are shown in FIG. 27 for 3ay and 3cy, along with fluorescence maxima in Table 1. Literature references indicate a higher quantum yield for secondary-amine naphthalimide derivatives than for tertiary amines in otherwise similar compounds. The pragmatic value of this gain was examined, weighing synthetic difficulty against measurable relative quantum yields.
as §1, §2

[5] = Glucose testing of naphthalimide boronates by fluorescence; details: PBS buffer (pH 7.4)
Description: The fluorescence spectra of compounds 3 have been obtained as a function of increasing glucose concentration. […] These values range from 9% to 16% over the four compounds, with the two lower values coming from the two compounds having secondary amino groups. These low values of fractional switching are more than balanced out by the high quantum yields for compounds 3az and 3cz. As a measure of the total signal increase for each system, the product of quantum yield and fractional fluorescence increase are given in Table 1, showing that 3cz is the most promising sensor candidate of the group, as expected.
as §1
as §2, with “A 30.0 μL aliquot of solution was then added to 3.000 mL of the appropriate solvent mixture (a combination of methanol and phosphate buffered saline—PBS) giving a final concentration of 10.0 μM for each complex. Changes in pH were carried out by the addition of small volumes of concentrated hydrochloric acid, acetic acid, or sodium hydroxide. Glucose additions were performed by the addition of a concentrated solution of glucose in PBS to a stirred solution of fluorophore in a cuvette. Relative quantum yield measurements were carried out by measuring the relative intensities of equimolar solutions (10.0 μM) of two fluorophores. Compound 3ay was used as the reference.” left out

[6] = vs. SCE, literature data for parent complexes; cited from earlier work

Row | Compound | first oxidation potential (amine) [1] [V] | first reduction potential [1] [V] | change in fluorescence [2] [%] | ΔGPET [3] [kcal/mol] | λ00 [3] [nm] | Amine Oxidation Potential E° (D^+/D) [1] [V] | Fluorophore Reduction Potential E° (A/A^−) [1] [V] | Emission λmax [4] [nm] | Excitation λmax [4] [nm] | Relative Quantum Yield [4] | Fluorescence Intensity Increase with added glucose (0 to 600 mg dL^−1) [5] [%] | expected ΔGel ([3]; from literature reduction potentials of parent complexes) [kcal/mol] | reduction potential [6] [V] | signal increase ([2]; drop from pH 7 to pH 2) [%] | change in quantum yield or wavelength maximum on removal of the THP protecting group [4]
1 | CCN(CC)Cc1ccnc(-c2cc(C)ccn2)c1.O=S(=O)([O-])C(F)(F)F.[C-]#[O+].[C-]#[O+].[C-]#[O+].[Re+].c1ccncc1 [(bpyCH2NEt2)Re(CO)3(py)](OTf), reference compound] | 1.35 | −1.20 | 61 |  |  |  |  |  |  |  |  |  |  |  | 
2 | N-n-Butyl-4-(N′-methylaminoethylene-N″-ArBmethylamino)naphthalene-1,8-dicarboximide [Compound 3ay] |  |  |  | -4.8 | 478 | 0.91 | −1.48 | 535 | 420 | 1 | 16 |  |  |  | 
3 | [Cl][Ru][Cl].c1ccc(-c2ccccn2)nc1.c1ccc(-c2ccccn2)nc1.c1ccc(-c2ccccn2)nc1 [[Ru(bpy)3]Cl2, reference compound] |  |  |  |  |  |  |  |  |  |  |  | 12.5 | −1.31 |  | 
4 | N-(5′-Tetrahydropyranoxypentyl)-4-(N′-methylaminoethylene-N″-ArBmethylamino)naphthalene-1,8-dicarboximide [Compound 3cy] |  |  |  | -5.5 | 470 | 0.93 | −1.47 | 525 | 415 | 1.32 | 13 |  |  |  | 
5 | Cc1ccnc(-c2cc(CN(C)Cc3ccccc3)ccn2)c1.O=S(=O)([O-])C(F)(F)F.[C-]#[O+].[C-]#[O+].[C-]#[O+].[Re+].c1ccncc1 [[(bpyN)Re(CO)3(py)](OTf)] | 1.34 | −1.20 | 930 |  |  |  |  |  |  |  |  |  |  | 21 | 
6 | N-(5′-Tetrahydropyranoxypentyl)-4-(N′-aminoethylene-N″-ArBmethylamino)naphthalene-1,8-dicarboximide [Compound 3cz] |  |  |  | -1.2 | 480 | 1.00 | −1.53 | 525 | 435 | 51.2 | 10 |  |  |  | no significant change
7 | N-n-Butyl-4-(N′-aminoethylene-N″-ArBmethylamino)naphthalene-1,8-dicarboximide [Compound 3az] |  |  |  | -0.62 | 485 | 1.05 | −1.48 | 535 | 435 | 44.2 | 9 |  |  |  | 
